Legend:
[1] = test system: 3 HPV-positive and 3 HPV-negative cell lines; experiment: Immunoblot of cleaved PARP and cleaved caspase-3; format: cell-based; settings: 72 hours or 2 doubling times
Procedure: BrdU positive apoptotic cells were detected and quantified. The bar graph indicates the percentage of apoptotic cells with fragmented DNA in HPV-positive and HPV-negative cell lines. Values are the means±the standard deviations for 3 independent experiments. FIG. 2B and FIG. 2C show immunoblots of cleaved PARP (Cl. PARP) and cleaved caspase-3 (Cl. […] UM47, UMSCC47; GAPDH, glyceraldehyde 3-phosphate dehydrogenase. Western blot analysis was performed as described previously (Ferrarotto, et al., Clin Cancer Res 2016; 22(7):1674-86). In brief, cells were lysed with ice-cold lysis buffer, and the lysates were centrifuged at 20,000×g for 10 minutes at 4° C. Cell lysates containing equal amounts of protein were resolved using sodium dodecyl sulfate-polyacrylamide gel electrophoresis, transferred to nitrocellulose membranes, and incubated with different primary antibodies. Protein expression was detected using a horseradish peroxidase-conjugated secondary antibody (Bio-Rad, Hercules, CA) and electrochemiluminescence reagent (Amersham Biosciences, Pittsburgh, PA).

[2] = test system: PDX tumors HOSC144, HOSC19, HOSC156 (p16-positive oropharynx cancer); experiment: In vivo tumor growth study, HPV-positive PDX models; set-up: species or system nude mice
Procedure: (§1) PDX tumors HOSC144 (FIG. 3A, FIG. 3E, FIG. 3F), HOSC19 (FIG. 3B), and HOSC156 (FIG. 3C) were implanted into the flanks of nude mice. After engraftment, mice were randomized and assigned into 1 of 2 treatment groups: vehicle (β-cyclodextrin, n=8) or alisertib (10 mg/kg, n=8). Mice were treated for 3 weeks by daily oral gavage. Tumor size was measured twice a week. FIG. 3A, FIG. 3B, and FIG. 3C show in vivo tumor growth curves for individual mice (left 3 panels). Survival (right panels) was measured using the Kaplan-Meier method. In FIG. 3D, HPV-negative UMSCC22A cells were injected subcutaneously (3×10^6 cells) on the right flanks of the mice. Once the tumor volume reached ≥60 mm^3, mice were randomized into treatment groups. Mice were treated with vehicle or 10 mg/kg alisertib by oral gavage for 5 days per week for 21 days. Tumor size was measured twice a week. […] The Ki67(%) was calculated as the ratio of proliferative cells to total cells in each field, using five random fields. […] The apoptotic (%) was calculated as the ratio of apoptotic cells to total cells in each field, using five random fields in HOSC144 PDX tumors after 8 or 21 days of treatment with either vehicle or alisertib. ** P≤0.01; *** P≤0.001. Bars, 100 μM.
The in vivo tumor growth study was performed in accordance with the Guide for the Care and Use of Laboratory Animals of the National Institutes of Health and approved by MD Anderson's Institutional Animal Care and Use Committee. The PDX models were generated as described previously (Peng, et al., J Transl Med 2013; 11:198), and subjected to qPCR as described to determine the HPV type (Chaturvedi, et al., The Journal of Infectious Diseases 2014; 210(3):441-7; Fakhry, et al, JAMA Oncol 2019; 5(7):985-92). Briefly, tumor tissue was cut into small fragments (5-6 mm) and implanted subcutaneously into the flanks of nude mice. The skin incisions were closed with skin clips that were removed after 10 to 15 days. Once tumors reached an average of 150 to 300 mm^3, the mice were randomized into either vehicle group or alisertib group. Alisertib (Takeda Pharmaceuticals, Lexington, MA; 10 mg/kg in 10% β-cyclodextrin) was administered via oral gavage once daily on a weekly schedule of 6 days on and 1 day off. Tumors were monitored daily, and tumor volume (length×width^2×0.5) was evaluated twice per week with digital calipers. Mice were euthanized when tumors reached 2000 mm^3. The endpoint for the survival studies was the tumor burden. Survival was measured using the Kaplan-Meier method. Survival curve analysis was performed with GraphPad Prism software version 9 (RRID:SCR_002798).
To test the effect of Aurora kinase inhibition in vivo, three patient-derived xenograft (PDX) models that were derived from patients with p16-positive oropharynx cancer [HOSC144 (HPV16, HPV52), HOSC19 (HPV18, HPV59), and HOSC 156 (HPV18)], were implanted in nude mice. A low dose of alisertib (10 mg/kg) was administered continuously for 3 weeks. […] In addition, an HPV-negative cell line with high Rb protein levels was also tested and it was observed that it was resistant to alisertib treatment (FIG. 3D).

[3] = test system: 16 HPV-positive and 17 HPV-negative HNSCC and cervical squamous cancer cell lines; experiment: High-throughput drug screen (HTDS), whole panel, comparison by HPV status; format: cell-based; settings: AOC_LD as a dichotomous variable
Procedure: The concordance correlation coefficient was computed to assess the reproducibility of the normalized growth rates of the 2 replicates. […] A chi-square test was applied to compare drug classification and the cluster membership. The Fisher exact test was applied to compare mutations status (wild-type and mutant) and drugs' response data (sensitive and resistant).
The effects of 864 unique drugs from 51 classes was tested in 16 HPV-positive and 17 HPV-negative HNSCC and cervical squamous cancer cell lines (Table 2) that were characterized previously (Kaiu, et al., Oncotarget 2017; 8(49):86369-83).

[4] = test system: 2 HPV-positive cell lines with TRIP13 overexpression; experiment: Apoptosis with TRIP13 overexpression, HPV-positive cells; format: cell-based; settings: 300 nmol/L, 24 or 32 hours
Procedure: FIG. 5A, two HPV-positive cell lines (CASKI and SIHA) were transfected with BUB1B or MAD2L1 siRNA and then treated for 24 hours with 300 nmol/L alisertib before lysis and immunoblotting with the indicated antibodies. FIG. 5B, TRIP13 was transiently overexpressed (Ox) in 2 HPV-positive cell lines that were treated for 24 hours with 300 nmol/L alisertib before lysis and immunoblotting for the indicated proteins. FIG. 5C, HPV-positive cell lines with TRIP13 overexpression were treated with 300 nmol/L alisertib for 32 hours and then stained for annexin V-PE/7AAD staining and analysis with flow cytometry to measure apoptosis. The bar graph represents the ratio of apoptosis (late plus early) among different groups. Values are the means±the standard deviations for 3 independent experiments. ** P≤0.01; *** P≤0.001; unpaired, 2-tailed Student t-test. FIG. 5D, HN31 (left panel) and MDA886LN (right panel) cells expressing RB1 or control shRNA were transfected with a plasmid for TRIP13. After 24 hours, cells were treated with 300 nmol/L alisertib and then lysed for immunoblotting. Cl, cleaved; Fl, full length; GAPDH, glyceraldehyde 3-phosphate dehydrogenase.
In normal cells, prolonged mitosis resulting from Mad2 overexpression can lead to G1 arrest or mitotic cell death, so it is unclear why Mad2 overexpression is tolerated in HPV-positive cancers. […]

[5] = test system: HPV-negative UMSCC22A cells; experiment: In vivo tumor growth, HPV-negative xenograft; set-up: species or system mice; settings: 10 mg/kg oral gavage 5 days per week for 21 days, high Rb protein levels
Procedure: as §1, with “[…]. […]” for “μM.”

[6] = HOSC144 tumors, days 8 and 21, vs vehicle

SMILES: COc1cc(Nc2ncc3c(n2)-c2ccc(Cl)cc2C(c2c(F)cccc2OC)=NC3)ccc1C(=O)O [ALISERTIB, alisertib]
- caspase-3 activation and PARP cleavage [1]: selective caspase-3 activation and PARP cleavage in HPV-positive cancer cell lines
- response after treatment was stopped ([2]; 10 mg/kg oral gavage, 3 weeks): sustained response
- tumor growth ([2]; 10 mg/kg oral gavage, 3 weeks): clear evidence of tumor regression
- survival duration ([2]; 10 mg/kg oral gavage, 3 weeks, Kaplan-Meier): concordant increase in survival duration
- Ki67 staining in tumors [2, 6]: significantly lower levels of Ki67 staining
- cleaved caspase-3 in tumors [2, 6]: increased levels of cleaved caspase-3
- efficacy in HPV-positive vs HPV-negative cell lines [3]: tended to be more effective in HPV-positive cell lines
- apoptosis with TRIP13 overexpression (PARP and caspase-3 cleavage, annexin V) [4]: partial rescue
- tumor response [5]: resistant

— patent publication US20260258420A1, “COMPOSITIONS AND METHODS FOR THE TREATMENT OF HUMAN PAPILLOMAVIRUS-DRIVEN CANCERS” (priority 2023, published 2026)
